{"source": "patent US20140186468A1", "about": "“DIAGNOSING SUBSETS OF TRIPLE-NEGATIVE BREAST CANCER” (priority 2012, published 2014)", "key": {"[1]": {"test_system": "BOGA cells (BRCA1-deficient MCF7 cells that overcome growth arrest)", "experiment": "Western blot of 53BP1 protein levels in BOGA cells after treatment", "format": "cell-based, human", "conditions": "vitamin D 10^−7M or E-64 10 μM vs vehicle", "method": "(FIG. 2A) MCF7 cells were transduced with shRNAs specific for depletion of 53BP1 (sh 53BP1), BRCA1 (sh BRCA1), or both combined. After selection (puromycin and/or G418), BRCA1, 53BP1, and CTSL levels were monitored by western. […] (FIG. 2C) Control and BOGA cells were transduced with sh CTSL or sh scr and the levels of CTSL, BRCA1, and 53BP1 monitored by western blot. […] (FIG. 2E) Control or BOGA cells were incubated with the broad cathepsin inhibitor E-64 (10 μM) or with vehicle (H2O), and the levels of 53BP1 and CTSL monitored by western blot.\nBGS was the vehicle in control media.\nCells were incubated with the broad spectrum cathepsin inhibitor E-64 (E3132, Sigma-Aldrich) diluted in water at a concentration of 10 μM for 24 hours.\nBriefly, cells were washed twice with PBS, and incubated in CSK I buffer (10 mM PIPES pH6.8, 100 mM NaCl, 300 mM sucrose, 3 mM MgCl2, 1 mM EGTA, and 0.5% Triton X-100) for 5 minutes. Coverslips were washed 5 times with cold PBS and fixed in modified STF buffer (150 mM 2-Bromo-2-nitro-1,3,-propanediol, 108 mM diazolidinyl urea, 10 mM Na citrate, and 50 nM EDTA pH 5.7) for 30 minutes at room temperature. Coverslips were then washed twice with cold PBS and permeabilized (PB buffer: 100 mM Tris-HCl pH 7.4, 50 mM EDTA pH 8.0, and 0.5% Triton X-100) for 15 minutes at room temperature followed by 2 washes in PBS. […]"}, "BOGA cells [2]": {"test_system": "BOGA cells", "experiment": "Analysis of aberrant chromosomes in metaphase spreads", "format": "cell-based, human", "description": "Cells collected 24 hr post-IR were analyzed for genomic instability by quantitating the percentage of metaphases presenting with chromosomal aberrations, as shown in the images. N, number of independent experiments (50 metaphases analyzed per condition in each experiment). […] (FIG. 5C) Control and BOGA cells were incubated with the cathepsin inhibitor E-64 or vehicle control (C) for 24 hr prior to IR, and the extent of genomic instability assessed as in FIG. 5B. […] Treatment protocol was as in FIG. 5B. […] Treatment performed as in FIG. 5C. […] All values expressed as mean±SEM. N, number of independent experiments; *p value of statistical significance (*p≦0.05).\nCells were treated with the PARPi EB-47 (E8405, Sigma-Aldrich) diluted in water at a concentration of 1.2 μg/mL for 48 hours."}, "BOGA cells [3]": {"test_system": "BOGA cells", "experiment": "Relative cell numbers 4 days after IR (recovery from IR)", "format": "cell-based, human", "conditions": "4 days after combined treatment with IR"}, "[4]": {"test_system": "OH mammary carcinoma system", "conditions": "mouse model; cited from earlier work"}, "MEFs": {"test_system": "MEFs", "conditions": "cited from earlier work"}, "[5]": {"conditions": "cited from earlier work"}}}
{"smiles": "CC(C)C[C@H](NC(=O)[C@H]1O[C@@H]1C(=O)O)C(=O)NCCCCN=C(N)N", "note": "[E-64]", "values": [{"measurement": "53BP1 protein levels (western blot)", "setting": "[1]", "result": "increased levels of 53BP1 protein"}, {"measurement": "percentage of metaphases with aberrant chromosomes after IR", "setting": "BOGA cells [2]; treated 24 hr prior to 2 Gy, analysed 24 hr post-IR", "result": "markedly increased genomic instability after IR"}, {"measurement": "recovery from IR (relative cell numbers)", "setting": "BOGA cells [3]", "result": "significantly reduced their recovery from IR"}]}
{"smiles": "NC(=S)N/N=C(/c1cccc(O)c1)c1cccc(Br)c1", "note": "[KGP94]", "values": [{"measurement": "malignant breast tumour growth delay", "setting": "[4]", "result": "showed great promise in this mouse model"}]}
{"smiles": "Nc1ncnc2c1ncn2[C@@H]1O[C@H](C(=O)N2CCN(CC(=O)Nc3cccc4c3CNC4=O)CC2)[C@@H](O)[C@H]1O", "note": "[PARPi]", "values": [{"measurement": "genomic instability (metaphases with chromosomal aberrations), PARPi alone", "setting": "BOGA cells [2]; EB-47 1.2 μg/mL for 48 hr", "result": "does not result in profound genomic instability"}]}
{"smiles": "C=C1/C(=C\\C=C2/CCC[C@]3(C)[C@@H]([C@H](C)CCCC(C)(C)O)CC[C@@H]23)C[C@@H](O)C[C@@H]1O", "note": "[vitamin D, 1α,25-dihydroxyvitamin D3]", "values": [{"measurement": "53BP1 protein stability", "setting": "MEFs", "result": "stabilizes 53BP1 protein in MEFs"}, {"measurement": "CTSL activity", "setting": "MEFs", "result": "inhibits CTSL activity"}, {"measurement": "intake in published cases of toxicity involving hypercalcemia", "setting": "[5]; cases with known dose and 25-hydroxy-vitamin D levels", "result": "40,000 IU per day"}, {"measurement": "sustained intake producing overt toxicity", "setting": "[5]; healthy adults, after several months", "result": "more than 1250 micrograms/day"}]}
